Converted amounts (≈) assume the structure as drawn.
Columns and labels:
MDA-MB-231 [1] = test: MTT cell proliferation assay, MDA-MB-231; format: cell-based, human; conditions: Homo sapiens, MDA-MB-231; Table 4
Summary of the method: (§1)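 Cells exposed three days to compounds at concentrations up to 10 μg/ml (≤0.5% DMSO), then 0.5 mg/ml MTT for 4 h at 37 °C. Solubilized formazan read at 540 nm; IC50 calculated from quadruplicate wells.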

MCF-7 = test: MTT cell proliferation assay, MCF-7; format: cell-based, human; conditions: Homo sapiens, MCF7; Table 4
Summary of the method: as §1

A549 = test: MTT cell proliferation assay, A549; format: cell-based, human; conditions: Homo sapiens, A549; read-out: Inhibition of cell proliferation (IC50)
Protocol: (§2) MTT [3-(4,5-dimethylthiazol-2-yl)-2,5-diphenyltetrazolium bromide] incorporation based cell proliferation assay was performed as described previously (Reference). The cytotoxic efficacy of some analogs was evaluated in different cell lines by MTT cell proliferation assay kit (Roche Applied Sciences, Germany). The assay was carried out according to the instruction provided by the vendor. Briefly, in brief, equal numbers of cells was plated in 96-well flat-bottomed plates in 100 μl of medium and were exposed to different analogs selected from 1 to 63 at various concentrations up to 10 μg/ml for a period of three days. Vehicle control culture wells received only a maximum of 0.5% DMSO. Thereafter, 0.5 mg/ml of MTT reagent was added to each well and the microplate was incubated further for 4 h at 37° C. in presence of 5% CO2. Finally, the cells were solubilized by adding solubilizing solution and allowed to incubate at 37° C. overnight. After complete solubilization of the formazan crystals the absorbance was read at 540 nm in a microplate reader (BioRad, USA). The results (mean OD±SD) obtained from quadruplicate wells were used in calculation to determine the inhibition of cell proliferation (50% of inhibitory concentration, IC50) of the test compounds.

A375 = test: MTT cell proliferation assay, A375; format: cell-based, human; conditions: Homo sapiens, A-375; A375; read-out: Inhibition of cell proliferation (IC50)
Protocol: as §2

B16 = test: MTT cell proliferation assay, B16; format: cell-based, mouse; conditions: Mus musculus, B16; read-out: Inhibition of cell proliferation (IC50)
Protocol: as §2

A2058 = test: In vitro antitumor activity, A2058; format: cell-based; conditions: Homo sapiens, read-out: Inhibition of cell proliferation (IC50)
Protocol: as §2, with “USA).” for “USA). The results (mean OD±SD) obtained from quadruplicate wells were used in calculation to determine the inhibition of cell proliferation (50% of inhibitory concentration, IC50) of the test compounds.”

DU145 = test: In vitro antitumor activity, DU145; format: cell-based; conditions: Homo sapiens, DU-145, read-out: Inhibition of cell proliferation (IC50)
Protocol: as §2, with “USA).” for “USA). The results (mean OD±SD) obtained from quadruplicate wells were used in calculation to determine the inhibition of cell proliferation (50% of inhibitory concentration, IC50) of the test compounds.”

SKBR3 = test: In vitro antitumor activity, SKBR3; format: cell-based; conditions: Homo sapiens, SK-BR-3, read-out: Inhibition of cell proliferation (IC50)
Protocol: as §2, with “USA).” for “USA). The results (mean OD±SD) obtained from quadruplicate wells were used in calculation to determine the inhibition of cell proliferation (50% of inhibitory concentration, IC50) of the test compounds.”

HT-29 = test: In vitro antitumor activity, HT-29; format: cell-based; conditions: Homo sapiens, read-out: Inhibition of cell proliferation (IC50)
Protocol: as §2, with “USA).” for “USA). The results (mean OD±SD) obtained from quadruplicate wells were used in calculation to determine the inhibition of cell proliferation (50% of inhibitory concentration, IC50) of the test compounds.”

[2] = system: Human umbilical vein endothelial cells (HUVEC); test: In vitro capillary-like tube formation assay; format: cell-based; conditions: HUVEC on Cultrex, 1, 2.5 and 5 μg/ml, 16 h
Protocol: In vitro capillary formation assay was performed with Human umbilical vein endothelial cells (HUVEC), cultured on 10 mg/ml basement membrane extract (BME—Cultrex®, R&D Systems, USA) bed. The protocol of in vitro endothelial tube formation assay was the same as described earlier with some modifications (Reference). Briefly, four hundred microliters of Cultrex was coated at 4° C. in each well of 24-well culture plate and allowed to gel at 37° C. for 1 h. HUVECs were plated at a density of 7.5×10^4 cells per well with 400 μl of DMEM supplemented with 10% fetal bovine serum and 4.5 g/l D-glucose. The cells were then treated with either 0.5% DMSO or different concentrations of LI-51255 for 16 hours. Pictures were taken under a Nikon Eclipse TS 100 microscope equipped with a Nikon Coolpix camera (FIG. 1B).

AKT pathway = AKT pathway western immunoblot in MDA-MB-231 cells; format: cell-based, human; conditions: MDA-MB-231, 10 μg/ml, 0-240 min
Protocol: Equal number of MDA-MB-231 human breast tumor cells (ER-) was plated in 25 cm^2 cell culture flasks. The cells treated with either 0.5% DMSO as vehicle or 10 μg/ml of LI-51255 for 0, 5, 10, 20, 30, 60, 120 and 240 min. The cells were lysed in cell lysis buffer.

MDA-MB-231 [3] = test: MDA-MB-231 clone (colony) formation in vitro; format: cell-based, human; conditions: 1.0, 1.5, 2.0, 2.5 μg/ml, 8 days
Protocol: Inhibitory efficacy in clone formation of LI-51255 was tested by following the procedure described earlier with some modifications (Wu et al. 2005). Briefly, MDA-MB-231 cells were harvested and seeded into 6-well plates (100 cells/ml). The cells were allowed to grow for 4 days and thereafter, the cells were incubated with DMEM containing either 0.5% DMSO or 25 μg/ml AKBA or different concentrations (1.0, 1.5, 2.0, 2.5 μg/ml) of LI-51255 for further 8 days. Fresh medium containing test agents was replaced at every 24 h. Finally, the wells were washed three times with PBS and fixed in methanol for 15 min. The cells were stained with Giemsa stain and observed under microscope. The image of the stained wells were captured digitally (Kodak Image Station 4000MM, Carestream Health Inc., New Haven, Conn.) and number of colonies were counted and analyzed by using NIH Image J software.

[4] = system: B16 murine melanoma cells; test: Cell cycle analysis by flow cytometry; format: cell-based; conditions: 24 h
Protocol: For flow cytometry, cells were harvested after the treatment period, washed with phosphate buffered saline (PBS), and adjusted the cell count at 2×10^6 cells per milliliter. The cells were fixed in 70% ethanol for 30 min at 4° C. Cells were then washed two times with PBS and stained with 0.5 μg/ml propidium iodide at 37° C. for 30 min and analyzed by flow cytometry. Data were acquired on a FACS Scan flow cytometer (Becton Dickinson) and analyzed by using the Cellquest software.

CC(=O)O[C@@H]1CC[C@@]2(C)C(CC[C@]3(C)C2C(=O)C=C2C4[C@@H](C)[C@H](C)CC[C@]4(C)CC[C@]23C)[C@@]1(C)C(=O)NCCN (stereo partly shown) [Analog 21]
IC50 (MDA-MB-231 [1]): 3.45 µg/mL (≈ 6.22 µM) | IC50 (MCF-7): 13 µg/mL (≈ 23.4 µM) | IC50 (A549): 6.83 µg/mL (≈ 12.3 µM) | IC50 (A375): 3.53 µg/mL (≈ 6.36 µM) | IC50 (B16): 4.35 µg/mL (≈ 7.84 µM) | IC50 (A2058): 3.59 µg/mL (≈ 6.47 µM) | IC50 (DU145): 4.24 µg/mL (≈ 7.64 µM) | IC50 (SKBR3): 5.3 µg/mL (≈ 9.55 µM) | IC50 (HT-29): 8.87 µg/mL (≈ 16 µM) | capillary-like tube formation [2]: dose dependent inhibition | phosphorylated AKT (ser 473) protein expression (AKT pathway): down regulating AKT phosphorylation | MDA-MB-231 colony formation (MDA-MB-231 [3]): potent inhibition of clone formation | cell cycle progression [4]: interrupts cell cycle progression at sub G1 phase
